Measured values: patent US5468734A, “Prophylactic and remedial preparation for diseases attendant on hyperglycemia, and wholesome food” (Godo Shusei Co., Ltd., priority 1992, dated 1995)
Entries after “also recorded” stand apart in the source; their conditions may differ. Where two headings read alike, the source gives them in different places.

What was measured:
[1] = type: in vivo, ICR male mice
Source text: (Action to depress increase in body weight of mice)
ICR male mice after the elapse of 5 weeks from their birth were used in proportions of 10 mice per group.
Mice of a control group were caused to freely ingest the same feed as those used in the run groups except that L-arabinose was not added.
The mice of each group were separately weighed after 10 days, 20 days, 30 days and 60 days from the beginning of the ingestion to determine their weight increases from the initial weights, thereby calculating an average value of the weights increased in each group. The amounts of the feeds and water ingested were also determined.

[2] = target: T1, sucrase (carbohydrase derived from rabbit small intestine mucous membrane) (Oryctolagus cuniculus, UniProt P07768); experiment: Action to inhibit the hydrolytic activity of homogenate prepared from rabbit small intestine mucous membrane: sucrase inhibition; type: biochemical
T1 construct: suspended again in a 10 mM potassium phosphate buffer (pH: 7.0), thereby obtaining a crude enzyme suspension; from tissue; host or cells: rabbit small intestine (title: mucous membrane), homogenate, 60,000×g precipitate
Description: (§1) (Action to inhibit the hydrolytic activity of homogenate prepared from rabbit small intestine mucous membrane to carbohydrate)
(§2) A native kind of white rabbits (weight: 3.0-3.5 kg) were sacrificed by exsanguination to take out their small intestines.
(§3) After freezing and thawing the small intestines thus taken out, they were homogenized in a 5 mM EDTA buffer (pH: 7.0) and subjected to centrifugation for 60 minutes at 60,000×g. Precipitate thus formed was collected and suspended again in a 10 mM potassium phosphate buffer (pH: 7.0), thereby obtaining a crude enzyme suspension.
(§4) Sucrose (20 mM) and maltose (20 mM) were used as substrates.
(§5) Each reaction mixture was formulated so as to contain 350 microliters of a 100 mM maleate buffer (pH: 6.8), 100 microliters of a substrate solution, 50 microliters of the crude enzyme suspension and 50 microliters of a test solution. Substances to be tested were separately dissolved in a maleate buffer (pH: 6.8) before use.
(§6) Respective reactions were conducted for 15 minutes at 37° C.

rise in blood sugar [3] = experiment: Action to depress the rise in blood sugar after sucrose loading to mice; type: in vivo, ICR male mice; conditions: for Rise in blood sugar: average ± standard error
Source text: (Action to depress the rise in blood sugar after carbohydrate loading)
ICR male mice (weight 30-35 g) were used in proportions of 5 mice per group.
After causing the mice to fast, sucrose or starch was orally administered in a proportion of 1 g/kg to the mice of each group, and at the same time substances to be tested were orally given to mice of their corresponding groups.
Blood was collected from the retroorbital sinus of each mouse before carbohydrate loading and upon elapsed times of 30 minutes, 60 minutes and 120 minutes after the loading to determine the concentration of glucose in the blood plasma by the glucose oxidase method.

rise in blood sugar [4] = experiment: Action to depress the rise in blood sugar after starch loading to mice; type: in vivo, ICR male mice; conditions: starch 1 g/kg; for Rise in blood sugar: average ± standard error
[5] = tested on: maltase (carbohydrase derived from rabbit small intestine mucous membrane); experiment: Action to inhibit the hydrolytic activity of homogenate prepared from rabbit small intestine mucous membrane: maltase inhibition; type: biochemical; conditions: for Maltase inhibition rate: substrate maltose 20 mM, pH 6.8, 37° C., 15 minutes
Description: as §1, §2, §3, §4, §5, §6

[6] = in vivo; cited from earlier work
[7] = 0.5%, 1.0%, 2.0% in feed, during the experiment

T1 sequence (P07768 1008-1827 limits assumed): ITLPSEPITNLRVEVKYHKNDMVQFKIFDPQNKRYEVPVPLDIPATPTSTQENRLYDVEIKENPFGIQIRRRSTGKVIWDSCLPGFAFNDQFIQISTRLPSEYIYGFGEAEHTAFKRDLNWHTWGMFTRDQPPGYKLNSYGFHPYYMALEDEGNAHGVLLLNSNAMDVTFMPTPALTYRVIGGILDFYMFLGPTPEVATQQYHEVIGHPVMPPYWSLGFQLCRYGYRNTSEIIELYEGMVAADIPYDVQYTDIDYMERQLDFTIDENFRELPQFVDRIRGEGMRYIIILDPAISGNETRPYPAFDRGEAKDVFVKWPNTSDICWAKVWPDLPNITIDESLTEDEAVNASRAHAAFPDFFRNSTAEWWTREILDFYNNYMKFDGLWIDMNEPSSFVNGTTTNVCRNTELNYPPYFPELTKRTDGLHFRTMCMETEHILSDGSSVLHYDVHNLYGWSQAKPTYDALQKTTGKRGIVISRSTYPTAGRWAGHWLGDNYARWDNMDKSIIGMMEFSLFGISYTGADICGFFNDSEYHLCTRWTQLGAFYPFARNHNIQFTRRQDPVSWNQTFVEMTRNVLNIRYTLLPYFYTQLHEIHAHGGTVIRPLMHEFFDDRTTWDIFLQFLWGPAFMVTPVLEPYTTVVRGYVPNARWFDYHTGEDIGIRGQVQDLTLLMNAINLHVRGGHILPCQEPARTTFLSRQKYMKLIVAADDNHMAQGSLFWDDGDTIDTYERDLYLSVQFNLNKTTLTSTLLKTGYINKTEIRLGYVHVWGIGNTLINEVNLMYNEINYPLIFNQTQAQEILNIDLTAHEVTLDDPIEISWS
T1 sequence (P07768 2-1007 partner limits assumed): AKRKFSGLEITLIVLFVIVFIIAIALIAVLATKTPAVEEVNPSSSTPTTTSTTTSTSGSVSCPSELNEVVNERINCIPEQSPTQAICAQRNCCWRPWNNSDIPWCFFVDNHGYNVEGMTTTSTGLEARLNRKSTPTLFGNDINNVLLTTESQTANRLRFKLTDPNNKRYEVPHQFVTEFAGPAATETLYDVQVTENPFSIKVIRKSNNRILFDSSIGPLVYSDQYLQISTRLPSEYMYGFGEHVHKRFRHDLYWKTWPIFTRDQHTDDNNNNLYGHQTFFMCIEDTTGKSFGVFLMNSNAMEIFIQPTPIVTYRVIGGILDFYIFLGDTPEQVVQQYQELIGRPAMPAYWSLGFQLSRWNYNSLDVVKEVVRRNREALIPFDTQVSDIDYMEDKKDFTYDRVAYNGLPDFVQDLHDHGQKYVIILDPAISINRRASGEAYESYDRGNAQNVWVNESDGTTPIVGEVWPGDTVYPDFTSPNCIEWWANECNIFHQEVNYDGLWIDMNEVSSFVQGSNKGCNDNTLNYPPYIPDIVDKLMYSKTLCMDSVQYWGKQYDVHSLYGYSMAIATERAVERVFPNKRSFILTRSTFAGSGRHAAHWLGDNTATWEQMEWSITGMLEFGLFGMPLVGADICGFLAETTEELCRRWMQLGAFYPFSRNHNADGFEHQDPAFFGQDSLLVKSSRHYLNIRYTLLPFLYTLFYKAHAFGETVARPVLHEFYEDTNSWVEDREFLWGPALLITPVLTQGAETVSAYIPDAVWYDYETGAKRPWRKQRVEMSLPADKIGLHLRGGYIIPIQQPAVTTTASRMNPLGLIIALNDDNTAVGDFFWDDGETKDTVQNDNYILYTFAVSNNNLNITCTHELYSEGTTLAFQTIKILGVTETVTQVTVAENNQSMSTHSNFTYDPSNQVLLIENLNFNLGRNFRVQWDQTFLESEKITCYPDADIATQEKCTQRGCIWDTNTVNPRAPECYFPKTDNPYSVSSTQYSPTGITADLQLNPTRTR

O=C[C@H](O)[C@@H](O)[C@@H](O)CO [L-Arabinose, L-arabinose]
Weight increase ([1]; 0.5% in feed (Group 1 / A1), after 10 days): 5.9 g
Weight increase ([1]; 0.5% in feed (Group 1 / A1), after 20 days): 9.2 g
Weight increase ([1]; 0.5% in feed (Group 1 / A1), after 30 days): 12.4 g
Weight increase ([1]; 0.5% in feed (Group 1 / A1), after 60 days): 15.0 g
death [1, 7]: no death at all
general medical condition and behavior [1, 7]: no abnormality in general medical condition and behavior
weight increase compared with control group (in words) ([1]; 0.5%, 1.0%, 2.0% in feed, up to 60 days): less weight increases compared with the mice of the control group
Weight increase ([1]; 1.0% in feed (Group 2 / A2), after 10 days): 5.3 g
Weight increase ([1]; 1.0% in feed (Group 2 / A2), after 20 days): 8.0 g
Weight increase ([1]; 1.0% in feed (Group 2 / A2), after 30 days): 11.7 g
Weight increase ([1]; 1.0% in feed (Group 2 / A2), after 60 days): 13.8 g
Weight increase ([1]; 2.0% in feed (Group 3 / A3), after 10 days): 4.7 g
Weight increase ([1]; 2.0% in feed (Group 3 / A3), after 20 days): 7.2 g
Weight increase ([1]; 2.0% in feed (Group 3 / A3), after 30 days): 10.2 g
Weight increase ([1]; 2.0% in feed (Group 3 / A3), after 60 days): 12.1 g
sucrase-inhibiting action (in words) [2]: strong sucrase-inhibiting action
inhibition at 250 µg/mL ([2]; 0.25 h, 25 mg/dl, substrate sucrose 20 mM, pH 6.8, 37° C., 15 minutes, read-out: Sucrase inhibition rate): 25.3%
inhibition at 500 µg/mL ([2]; 0.25 h, 50 mg/dl, substrate sucrose 20 mM, pH 6.8, 37° C., 15 minutes, read-out: Sucrase inhibition rate): 37.8%
inhibition at 1000 µg/mL ([2]; 0.25 h, 100 mg/dl, substrate sucrose 20 mM, pH 6.8, 37° C., 15 minutes, read-out: Sucrase inhibition rate): 52%
inhibition at 2000 µg/mL ([2]; 0.25 h, 200 mg/dl, substrate sucrose 20 mM, pH 6.8, 37° C., 15 minutes, read-out: Sucrase inhibition rate): 66.3%
Rise in blood sugar (rise in blood sugar [3]; sucrose 1 g/kg, dose 25 mg/kg oral, after 30 min.): 71.7 Δmg/dl
Rise in blood sugar (rise in blood sugar [3]; sucrose 1 g/kg, dose 25 mg/kg oral, after 60 min.): 49.4 Δmg/dl
Rise in blood sugar (rise in blood sugar [3]; sucrose 1 g/kg, dose 50 mg/kg oral, after 30 min.): 62.9 Δmg/dl
Rise in blood sugar (rise in blood sugar [3]; sucrose 1 g/kg, dose 50 mg/kg oral, after 60 min.): 37.3 Δmg/dl
Rise in blood sugar (rise in blood sugar [3]; sucrose 1 g/kg, dose 50 mg/kg oral, after 120 min.): 21.5 Δmg/dl
Rise in blood sugar (rise in blood sugar [3]; sucrose 1 g/kg, dose 100 mg/kg oral, after 30 min.): 41.8 Δmg/dl
Rise in blood sugar (rise in blood sugar [3]; sucrose 1 g/kg, dose 100 mg/kg oral, after 60 min.): 30.4 Δmg/dl
Rise in blood sugar (rise in blood sugar [3]; sucrose 1 g/kg, dose 100 mg/kg oral, after 120 min.): 20.3 Δmg/dl
action to depress the rise in blood sugar due to sucrose loading (in words) (rise in blood sugar [3]; sucrose 1 g/kg, orally 25, 50 and 100 mg/kg (L-arabinose, D-xylose) or 100 mg/kg (others)): depressed in dependence on the dose
action to depress the rise in blood sugar for sucrose or starch loading (in words) (rise in blood sugar [3]; sucrose or starch loading, summary statement): remarkably effective in depressing the rise in blood sugar after carbohydrate loading; also recorded: effective action to depress the rise in blood sugar
depressing action on the rise in blood sugar due to starch loading (in words) (rise in blood sugar [4]): depressing action on the rise in blood sugar due to starch loading in dependence on the dose
Rise in blood sugar (rise in blood sugar [4]; dose 25 mg/kg oral, after 30 min.): 91.1 Δmg/dl
Rise in blood sugar (rise in blood sugar [4]; dose 25 mg/kg oral, after 60 min.): 68.5 Δmg/dl
Rise in blood sugar (rise in blood sugar [4]; dose 25 mg/kg oral, after 120 min.): 29.8 Δmg/dl
Rise in blood sugar (rise in blood sugar [4]; dose 50 mg/kg oral, after 30 min.): 71.4 Δmg/dl
Rise in blood sugar (rise in blood sugar [4]; dose 50 mg/kg oral, after 60 min.): 54.6 Δmg/dl
Rise in blood sugar (rise in blood sugar [4]; dose 100 mg/kg oral, after 30 min.): 59.6 Δmg/dl
Rise in blood sugar (rise in blood sugar [4]; dose 100 mg/kg oral, after 60 min.): 48.3 Δmg/dl
Rise in blood sugar (rise in blood sugar [4]; dose 100 mg/kg oral, after 120 min.): 24.6 Δmg/dl
maltase-inhibiting action (in words) [5]: strong sucrase-inhibiting action and maltase-inhibiting action
Maltase inhibition rate ([5]; 25 mg/dl): 28.5%
Maltase inhibition rate ([5]; 50 mg/dl): 35.8%
Maltase inhibition rate ([5]; 100 mg/dl): 45.7%
Maltase inhibition rate ([5]; 200 mg/dl): 47.4%
uptake from the digestive tract [6]: hard to be taken up from the digestive tract
